Experiments:
RS1-1 and variants = assay: Luciferase induction assay, RS1-1 and variants in HEK-293T cells; assay type: cell-based, human; details: RS1-1, RS1-2, RS1-3, RS1-4, RS1-7, and RS1-9; FIG. 9A; 18 hours
Experimental: (§1) HEK-293T cells were cultured in DMEM+10% FBS, collected after trypsinization, and dispensed into 96-well plates (cell culture-treated). Each well of the plate was seeded with 1.0×10^5 cells in 100 μL culture medium. After a 1-hour incubation in the tissue culture incubator (5% CO2, 37° C.), plasmid DNA was complexed with a transfection reagent, such as Lipofectamine 3000, and added to respective wells on the plate. Each well received 100 ng of plasmid DNA complexed with 0.15 μL Lipofectamine 3000. The plasmids utilized in the experiment encoded a CMV promoter upstream of the RS1-1 variant that controlled the expression of a Firefly Luciferase gene followed by a SV40 polyadenylation signal. After a 10-minute incubation at room temperature, either DMSO vehicle or a splice modulator compound at specified doses was added to the wells of the plate. Plates were then incubated for 18 hours in a tissue culture incubator. Endpoint analysis was performed by adding 100 μL of a Luciferase substrate, such as Steady-Luc Firefly Luciferase substrate, to each well of the assay plate. The liquid contents of each was transferred to a 96-well plate, mixed again for 2 min on an orbital shaker, and incubated at room temperature for 5 min. Finally, the luminescent signal from each well was measured with a plate reader.

RS1-10, HepG2 cells = assay: RS1-10 performance in HepG2 cells; assay type: cell-based, human; details: CBA promoter, 18 hours, FIG. 10D
Experimental: The human SH-SY5Y neuroblastoma cell line or the human hepatic HepG2 cell line was cultured in EMEM+10% FBS, collected after trypsinization, and then dispensed into 96-well plates (cell culture-treated). Each well of the plate was seeded with 1.0×10^5 cells in 100 μL culture medium. After a 1-hour incubation in the tissue culture incubator (5% CO2, 37 degrees C.), plasmid DNA was complexed with a transfection reagent, such as Lipofectamine 3000, and added to respective wells on the plate. Each well received an equivalent of 100 ng of plasmid DNA complexed with 0.15 μL Lipofectamine 3000 (Opti-MEM I was used as diluent). Triplicate wells were used for each condition tested in the experiment. The plasmids utilized in the human SH-SY5Y neuroblastoma cell line encoded either a CBA promoter or cloned human Synapsin promoter upstream of the RS1-10 construct that controlled the expression of a Firefly Luciferase gene followed by a SV40 polyadenylation signal. The plasmids utilized in the HepG2 cells encoded a CBA promoter upstream of the RS1-10 construct that controlled the expression of a Firefly Luciferase gene followed by a SV40 polyadenylation signal.
After a 10-minute incubation at room temperature, either DMSO vehicle or TA was added to the wells of the plate. […] Finally, the luminescent signal from each well was measured with a plate reader. […]

[1] = system: RS1-10 minigene (Firefly Luciferase), HEK-293T cells; assay: Luciferase induction assay, RS1-10 with splice modulator compounds in HEK-293T cells; assay type: cell-based; details: Homo sapiens, 18 hours, n of 3, read-out: Mean fold-induction of luciferase (relative to vehicle control)
Experimental: (§2) HEK-293T cells were cultured in DMEM+10% FBS, collected after trypsinization, and then dispensed into 96-well plates (cell culture-treated). Each well of the plate was seeded with 1.0×10^5 cells in 100 μL culture medium. After a 1-hour incubation in a tissue culture incubator (5% CO2, 37 degrees C.), plasmid DNA was complexed with a transfection reagent, such as Lipofectamine 3000, and added to respective wells on the plate. Each well received an equivalent of 100 ng of plasmid DNA complexed with 0.15 μL Lipofectamine. Triplicate wells were used for each condition tested in the experiment. The plasmid utilized in the experiment encoded a CMV promoter upstream of the RS I-10 variant that controlled the expression of a Firefly Luciferase gene followed by a SV40 polyadenylation signal. After a 10-minute incubation at room temperature, either DMSO vehicle or specified compound at specified dose was added to the wells of the plate. Plates were then incubated for 18 hours in a tissue culture incubator. Endpoint analysis was performed by adding 100 uL Steady-Luc Firefly Luciferase substrate to each well of the assay plate. After mixing, the liquid contents of each was transferred to a 96-well plate, mixed again for 2 min on an orbital shaker, and incubated at room temperature for 5 min. Finally, the luminescent signal from each well was measured with a with PerkinElmer Envision plate reader. The results of this assay show RS1-10 responded to the majority of the splice modulator compounds used in a dose responsive manner (FIG. 9C). Bars represent mean+/−standard deviation of 3 wells normalized to vehicle controls.

[2] = system: RS2-3 minigene (Firefly Luciferase), HEK-293T cells; assay: Luciferase induction assay, RS2-3 with splice modulator compounds in HEK-293T cells; assay type: cell-based; details: Homo sapiens, 18 hours, n of 3, read-out: Mean fold-induction of luciferase (relative to vehicle control)
Experimental: as §2, with “RS2-3” for “RS I-10”, “RS2-3” for “RS1-10”, “used” for “used in a dose responsive manner”, “13C)” for “9C).”

[3] = system: RS3-13 minigene (Firefly Luciferase), HEK-293T cells; assay: Luciferase induction assay, RS3-13 with splice modulator compounds in HEK-293T cells; assay type: cell-based; details: Homo sapiens, 18 hours, n of 3, read-out: Mean fold-induction of luciferase (relative to vehicle control)
Experimental: as §2, with “RS3-13” for “the RS I-10 variant”, “RS3-13” for “RS1-10”, “used” for “used in a dose responsive manner”, “14D)” for “9C).”

RS3-1 and variants = assay: Luciferase induction assay, RS3-1 and variants in HEK-293T cells; assay type: cell-based, human; details: 18 hours
Experimental: as §1, with “RS3-1 construct and variants” for “RS1-1 variant”, “116B” for “a splice modulator compound”, “reader. […]” for “reader.”

RS4-1 and variants = assay: Luciferase induction assay, RS4-1 and variants in HEK-293T cells; assay type: cell-based, human; details: 18 hours, FIGS. 15A, 15B
Experimental: as §1, with “of the RS4-1 construct and variants that controlled” for “of the RS1-1 variant that controlled”, “vehicle or 24 A at specified” for “vehicle or a splice modulator compound at specified”, “adding 100 uL of a” for “adding 100 μL of a”, “plate reader. […]” for “plate reader.”

| SMILES | fold induction of luciferase (RS1-1 and variants) | fold-induction of luciferase (RS1-10, HepG2 cells) | fold induction at 0.1 µM ([1]; RS1-10, 100 nM) | fold induction at 1 µM ([1]; RS1-10, 1,000 nM) | fold induction at 0.1 µM ([2]; RS2-3, 100 nM) | fold induction at 1 µM ([2]; RS2-3, 1,000 nM) | fold induction at 0.1 µM ([3]; RS3-13, 100 nM) | fold induction at 1 µM ([3]; RS3-13, 1,000 nM) | fold induction of luciferase compared to vehicle, constructs vs RS3-1 (RS3-1 and variants; 100 nM (FIGS. 14A, 14B), 200 nM or 600 nM (FIG. 14C)) | fold induction of luciferase, concentration dependence (RS3-1 and variants; RS3-1 variants, 200 nM and 600 nM (FIG. 14C)) | fold-induction of luciferase (RS4-1 and variants) |
| --- | --- | --- | --- | --- | --- | --- | --- | --- | --- | --- | --- |
| Cc1cn2cc(-c3ccc(-c4ccc(C5CNC5)nn4)c(O)c3)cc(F)c2n1.Cl [1 A, 2-(6-(azetidin-3-yl)pyridazin-3-yl)-5-(8-fluoro-2-methylimidazo[1,2-a]pyridin-6-yl)phenol, HCl] | increasing fold induction of luciferase with increasing concentration of splice modulator | showed fold-induction of luciferase | – | – | – | – | – | – | – | – | – |
| Cc1cn2cc(-c3nc(=O)n4cc(N5CCN[C@@H](C)C5)cc(F)c4n3)cc(F)c2n1 [Compound 116B, (S)-9-fluoro-2-(8-fluoro-2-methylimidazo[1,2-a]pyridine-6-yl)-7-(3-methylpiperazin-1-yl)-4H-pyrido[1,2-a][1,3,5]triazin-4-one] | – | – | 71.8 | 96.6 | 19.8 | 39.9 | 33.4 | 64.6 | Some of the constructs show higher fold induction of luciferase in the presence of 116B compared to vehicle than RS3-1 | higher fold induction of luciferase with higher concentrations of 116B | increasing fold-induction of luciferase with increasing concentrations |

From patent publication US20260327655A1, “SMALL-MOLECULE REGULATED ALTERNATIVE SPLICING” (priority 2023, published 2026)
